Data from patent US20260085062A1, “NOVEL COMPOUNDS AS CK2 INHIBITORS” (Cambridge Enterprise Limited, priority 2022, published 2026).

What was measured:
intracellular CK2α = biological target: T1, intracellular CK2α (Homo sapiens, UniProt P19784); experiment: Cell-based NanoBRET assay for inhibitor binding to intracellular CK2α; details: HCT116 cells transiently transfected with CSNK2A2-NanoLuc fusion vector; Tracer K-5; 2 h; read-out: Assay 3: NanoBRET ™ assay for binding to intracellular CK2α
T1 construct: host or cells: HCT116 (ATCC CCL-247)
Summary of the method: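 Apparent affinity came from BRET ratio (acceptor/donor ×1,000), with donor read at 450 nm and acceptor at 610 or 630 nm. Compounds competed off a tracer added at fixed concentration to cells carrying a NanoLuc-CK2α fusion.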

CK2α = biological target: T2, CK2α (Homo sapiens, UniProt P68400); experiment: Biochemical assay for inhibitors of CK2α kinase activity (ADP-Glo); details: 0.2 nM CK2α, 50 μM peptide substrate, 15 μM ATP, read-out: Assay 1: CK2α Enzyme IC50
T2 construct: CK2α (residues 2-329) was produced in Escherichia coli BL21 (DE3) for kinase activity screening; His6 (N, cleaved yes); made in house; host or cells: Escherichia coli BL21 (DE3)
T2 sequence (P68400 2-329): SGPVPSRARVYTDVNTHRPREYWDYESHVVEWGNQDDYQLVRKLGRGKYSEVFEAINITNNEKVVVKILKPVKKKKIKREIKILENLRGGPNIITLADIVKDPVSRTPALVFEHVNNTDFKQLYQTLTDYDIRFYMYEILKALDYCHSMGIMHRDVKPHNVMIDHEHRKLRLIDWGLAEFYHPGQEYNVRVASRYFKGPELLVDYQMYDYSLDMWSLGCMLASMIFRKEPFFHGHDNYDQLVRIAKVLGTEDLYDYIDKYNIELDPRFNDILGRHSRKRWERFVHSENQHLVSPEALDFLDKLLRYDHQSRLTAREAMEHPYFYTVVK

CLK2 = biological target: T3, CLK2 (Homo sapiens, UniProt P49760); experiment: Biochemical assay for inhibitors of CLK2 kinase activity (ADP-Glo); details: 20 nM CLK2, 50 μM peptide substrate, 100 μM ATP, read-out: Assay 2: CLK2 Enzyme IC50
T3 construct: purchased Carna Biosciences 04-127
T3 sequence (P49760 whole entry): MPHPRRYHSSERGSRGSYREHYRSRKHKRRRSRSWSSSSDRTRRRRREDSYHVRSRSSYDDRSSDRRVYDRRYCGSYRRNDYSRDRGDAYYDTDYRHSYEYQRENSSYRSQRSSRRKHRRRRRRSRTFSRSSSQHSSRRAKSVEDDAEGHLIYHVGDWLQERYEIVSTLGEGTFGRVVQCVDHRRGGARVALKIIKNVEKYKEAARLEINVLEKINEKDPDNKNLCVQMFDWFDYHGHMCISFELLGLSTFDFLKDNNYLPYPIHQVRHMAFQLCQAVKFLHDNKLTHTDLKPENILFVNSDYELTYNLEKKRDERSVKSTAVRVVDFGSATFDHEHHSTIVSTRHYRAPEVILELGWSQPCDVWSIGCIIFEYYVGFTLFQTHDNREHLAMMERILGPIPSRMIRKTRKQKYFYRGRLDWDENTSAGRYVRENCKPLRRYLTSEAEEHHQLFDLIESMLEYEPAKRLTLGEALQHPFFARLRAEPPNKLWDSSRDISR

T1 sequence (P19784 whole entry, the tested form may be a part): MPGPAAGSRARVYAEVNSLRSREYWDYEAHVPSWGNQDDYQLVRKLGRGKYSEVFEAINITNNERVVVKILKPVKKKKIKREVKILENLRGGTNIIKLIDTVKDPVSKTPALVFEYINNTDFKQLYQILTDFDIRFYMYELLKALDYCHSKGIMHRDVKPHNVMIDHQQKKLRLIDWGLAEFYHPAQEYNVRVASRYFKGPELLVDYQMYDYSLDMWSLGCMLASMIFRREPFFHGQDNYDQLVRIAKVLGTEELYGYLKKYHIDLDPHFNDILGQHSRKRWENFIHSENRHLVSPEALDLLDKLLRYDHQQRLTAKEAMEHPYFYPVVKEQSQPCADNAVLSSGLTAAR

| Structure (SMILES) | IC50 (intracellular CK2α) [nM] | IC50 (CK2α) [nM] | IC50 (CLK2) [nM] |
| --- | --- | --- | --- |
| Cn1c(CNCCCCOCCNc2cc(-n3cnnc3)cc3[nH]ncc23)cc2ccc(Cl)cc21 [Example 50, N-(2-(4-(((6-chloro-1-methyl-1H-indol-2-yl)methyl)amino)butoxy)ethyl)-6-(4H-1,2,4-triazol-4-yl)-1H-indazol-4-amine] | 153 | 2.2 | 94 |
| O=C(CCNCc1ccc(-c2ccccc2)c(Cl)c1)NCCCNc1cc(-c2ccnnc2)cc2[nH]ncc12 [Example 6, 3-(((2-chloro-[1,1′-biphenyl]-4-yl)methyl)amino)-N-(3-((6-(pyridazin-4-yl)-1H-indazol-4-yl)amino)propyl)propanamide] | 50.8 | 0.19 | 235 |
| FC(F)(F)c1ccc2[nH]c(CNCCCCOC3CN(c4cc(-n5cnnc5)cc5[nH]nnc45)C3)cc2c1 [Example 152, 4-((1-(6-(4H-1,2,4-triazol-4-yl)-1H-benzo[d][1,2,3]triazol-4-yl)azetidin-3-yl)oxy)-N-((5-(trifluoromethyl)-1H-indol-2-yl)methyl)butan-1-amine] | > 50000 | 49.7 | 5820 |
| COc1n[nH]cc1-c1cc(NCCOCCCCNCc2cc3cc(C(F)(F)F)ccc3[nH]2)c2cn[nH]c2c1 [Example 92, 6-(3-methoxy-1H-pyrazol-4-yl)-N-(2-(4-(((5-(trifluoromethyl)-1H-indol-2-yl)methyl)amino)butoxy)ethyl)-1H-indazol-4-amine] | 1780 | 19.1 | 24.1 |
| N#Cc1cc(NCCOCCCCNCc2cc(F)c(OC(F)(F)F)c(F)c2)c2cn[nH]c2c1 [Example 167, 4-((2-(4-((3,5-difluoro-4-(trifluoromethoxy)benzyl)amino)butoxy)ethyl)amino)-1H-indazole-6-carbonitrile] | 831 | 21 | 774 |
| N#CCc1cc(F)cc(CNCCCCOC2CN(c3cc(-c4ccnnc4)cc4[nH]ncc34)C2)c1 [Example 113, 2-(3-fluoro-5-(((4-((1-(6-(pyridazin-4-yl)-1H-indazol-4-yl)azetidin-3-yl)oxy)butyl)amino)methyl)phenyl)acetonitrile] | 8090 | 67.5 | 2710 |
| N#CCc1cc(CNCCCCOCCNc2cc(-n3cnnc3)cc3[nH]nnc23)cc(OC(F)(F)F)c1 [Example 141, 2-(3-(((4-(2-((6-(4H-1,2,4-triazol-4-yl)-1H-benzo[d][1,2,3]triazol-4-yl)amino)ethoxy)butyl)amino)methyl)-5-(trifluoromethoxy)phenyl)acetonitrile] | 2060 | 2.77 | 17800 |
| O=C(CCNCc1n[nH]c(-c2ccccc2)c1Cl)NCCCNc1cc(-n2cnnc2)cc2[nH]ncc12 [Example 34, N-(3-((6-(4H-1,2,4-triazol-4-yl)-1H-indazol-4-yl)amino)propyl)-3-(((4-chloro-5-phenyl-1H-pyrazol-3-yl)methyl)amino)propanamide] | 9890 | 3.32 | 70.8 |
| Cc1[nH]ncc1-c1cc(NCCCNC(=O)CCNCc2ccc(OC(F)(F)F)c(Cl)c2)c2cn[nH]c2c1 [Example 159, 3-((3-chloro-4-(trifluoromethoxy)benzyl)amino)-N-(3-((6-(5-methyl-1H-pyrazol-4-yl)-1H-indazol-4-yl)amino)propyl)propanamide] | 703 | 1.93 | 64.3 |
| O=C(Cc1cnc(CCNCc2ccc(OC(F)(F)F)c(Cl)c2)o1)Nc1cc(-n2cnnc2)cc2[nH]ncc12 [Example 15, N-(6-(4H-1,2,4-triazol-4-yl)-1H-indazol-4-yl)-2-(2-(2-((3-chloro-4-(trifluoromethoxy)benzyl)amino)ethyl)oxazol-5-yl)acetamide] | > 50000 | 27.1 | 1830 |
| Cc1cc(-c2cc(NCCCNC(=O)CCNCc3ccc(-c4ccccc4)c(Cl)c3)c3cn[nH]c3c2)ccn1 [Example 21, 3-(((2-Chloro-[1,1′-biphenyl]-4-yl)methyl)amino)-N-(3-((6-(2-methylpyridin-4-yl)-1H-indazol-4-yl)amino)propyl)propanamide] | 346 | 2.93 | 446 |
| OCCOc1cc(CNC2CC(COCCOc3cc(-c4cnnc(O)c4)cc4[nH]ncc34)C2)cc(OC(F)(F)F)c1 (stereo not drawn) [Example 199, 5-(4-(2-((3-((3-(2-hydroxyethoxy)-5-(trifluoromethoxy)benzyl)amino)cyclobutyl)methoxy)ethoxy)-1H-indazol-6-yl)pyridazin-3-ol] | 1940 | 21.5 | 1210 |
| O=C(O)CCc1cc(NCCOCCCCNCc2cc3cc(C(F)(F)F)ccc3[nH]2)c2cn[nH]c2c1 [Example 89, 3-(4-((2-(4-(((5-(trifluoromethyl)-1H-indol-2-yl)methyl)amino)butoxy)ethyl)amino)-1H-indazol-6-yl)propanoic acid] | > 50000 | > 1000 | 18400 |
| c1cc(-c2cc(NCCOCCCCNCc3cc4cc(OC5CCC5)ccc4[nH]3)c3cn[nH]c3c2)cnn1 [Example 57, N-(2-(4-(((5-cyclobutoxy-1H-indol-2-yl)methyl)amino)butoxy)ethyl)-6-(pyridazin-4-yl)-1H-indazol-4-amine] | 69.8 | 0.6 | 781 |
| N#CCc1cc(NCCOCCCCNCc2cc(CO)cc(OC(F)(F)F)c2)c2cn[nH]c2c1 [Example 204, 2-(4-((2-(4-((3-(hydroxymethyl)-5-(trifluoromethoxy)benzyl)amino)butoxy)ethyl)amino)-1H-indazol-6-yl)acetonitrile] | 405 | 46.2 | 3440 |
| FC(F)(F)c1ccc2[nH]c(CNCCCCOCCOc3cc(-n4cnnc4)cc4[nH]ncc34)cc2c1 [Example 117, 4-(2-((6-(4H-1,2,4-triazol-4-yl)-1H-indazol-4-yl)oxy)ethoxy)-N-((5-(trifluoromethyl)-1H-indol-2-yl)methyl)butan-1-amine] | 214 | 3 | 1260 |
| Cc1nc(-c2cc(NCCCNC(=O)CCNCc3ccc(-c4ccccc4)c(Cl)c3)c3cn[nH]c3c2)c[nH]1 [Example 9, 3-(((2-chloro-[1,1′-biphenyl]-4-yl)methyl)amino)-N-(3-((6-(2-methyl-1H-imidazol-4-yl)-1H-indazol-4-yl)amino)propyl)propanamide] | 8550 | 7.69 | 568 |
| FC(F)(F)c1ccc2[nH]c(CNCCCCOCCNc3cccc4[nH]ncc34)cc2c1 [Example 94] | 29300 | 203 | 5790 |
| OCc1cc(Cl)cc(CNCCCCOC2CN(c3cc(-n4cnnc4)cc4[nH]ncc34)C2)c1 [Example 130, (3-(((4-((1-(6-(4H-1,2,4-triazol-4-yl)-1H-indazol-4-yl)azetidin-3-yl)oxy)butyl)amino)methyl)-5-chlorophenyl)methanol] | 15400 | 106 | 326 |
| O=C(CCNCc1cccc(OCCO)c1)NCCCNc1cc(-n2cnnc2)cc2[nH]ncc12 [Example 42, N-(3-((6-(4H-1,2,4-triazol-4-yl)-1H-indazol-4-yl)amino)propyl)-3-((3-(2-hydroxyethoxy)benzyl)amino)propanamide] | > 50000 | 6.94 | 83.8 |
